According to ChEMBL document CHEMBL1201862, “PubChem BioAssay data set” (2004):
Activity calls are given as the source filed them.

Key:
[1] = general mammalian cell viability loss – inhibitor set, cherry-pick, set 2, cytotoxicity control for miR-122 modulator project, dose response (AID 720697); format: functional, cell-based
[2] = inhibition of ADAM10 peptide cleavage – biochemical, FRET peptide substrate, recombinant human ADAM10, selectivity assay for ADAM17 exosite inhibitor project, dose response (AID 743259);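 further: ADAM10 enzyme cleaving a FRET peptide substrate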
[3] = biological target: Disintegrin and metalloproteinase domain-containing protein 17 (Homo sapiens, UniProt P78536); assay: exosite inhibitors of ADAM17, dose response, biochemical (AID 743260)
Sequence of Disintegrin and metalloproteinase domain-containing protein 17 (P78536 whole entry, the tested form may be a part): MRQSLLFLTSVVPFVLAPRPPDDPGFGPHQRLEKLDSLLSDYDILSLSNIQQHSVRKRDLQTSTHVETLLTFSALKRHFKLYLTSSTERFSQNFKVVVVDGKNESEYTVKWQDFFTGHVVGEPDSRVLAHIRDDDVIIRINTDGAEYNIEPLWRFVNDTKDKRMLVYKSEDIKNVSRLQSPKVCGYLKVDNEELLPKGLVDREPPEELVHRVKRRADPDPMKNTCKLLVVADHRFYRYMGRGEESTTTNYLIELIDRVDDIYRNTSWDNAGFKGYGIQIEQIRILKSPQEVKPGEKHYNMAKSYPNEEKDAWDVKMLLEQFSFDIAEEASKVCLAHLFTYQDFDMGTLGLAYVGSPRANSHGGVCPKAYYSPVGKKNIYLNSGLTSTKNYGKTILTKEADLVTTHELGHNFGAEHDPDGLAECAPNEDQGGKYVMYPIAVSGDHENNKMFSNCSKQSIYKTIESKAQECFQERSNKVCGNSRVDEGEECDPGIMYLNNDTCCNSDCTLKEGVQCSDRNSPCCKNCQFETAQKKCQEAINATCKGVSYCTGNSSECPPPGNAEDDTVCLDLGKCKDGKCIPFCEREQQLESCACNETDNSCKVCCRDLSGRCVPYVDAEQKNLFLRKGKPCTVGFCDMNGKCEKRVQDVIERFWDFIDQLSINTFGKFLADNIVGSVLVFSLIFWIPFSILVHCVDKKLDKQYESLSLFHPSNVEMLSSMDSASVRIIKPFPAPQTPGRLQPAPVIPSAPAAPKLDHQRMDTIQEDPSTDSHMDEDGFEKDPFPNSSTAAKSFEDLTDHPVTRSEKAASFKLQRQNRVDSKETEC

[4] = Potency on glucagon-like peptide 1 release, dose-response in NCI-H716 cell line, half maximal inhibitory concentration (AID 1117344); format: functional, cell-based
[5] = cytotoxicity in MITF-independent A375 cells – cell-based, CellTiter-Glo luminescence, dry powder, set 4, counter-screen for MITF inhibitor project, dose response (AID 624364); format: functional; details: A-375;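 further: A375 melanoma cells are MITF independent so this is a counter screen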
[6] = viability loss in MITF-independent A375 cells – cell-based, CellTiter-Glo luminescence, dry powder, set 2, counter-screen for MITF inhibitor project, dose response (AID 624489); format: functional; details: A-375;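 further: actives are compounds lowering A375 viability meaning general cytotoxicity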
[7] = system: Vero; assay: mammalian cell viability reduction – secondary assay, cytotoxicity control for West Nile virus antiviral project, dose response (AID 1650); format: functional; details: Chlorocebus sabaeus
[8] = NIH3T3 cell viability loss – ATP luminescence, mouse fibroblasts, counter-screen, dose response (AID 2010); format: functional, cell-based;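 further: cells exposed to compound for about 90 hours before reading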
[9] = Trypanosoma cruzi growth suppression in host cells – NIH3T3 host cells, beta-gal luminescence, confirmation (AID 2044); format: functional, cell-based;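 further: intracellular parasites grown in NIH/3T3 mouse fibroblasts as host cells; luminescent beta-galactosidase reporter signal from transgenic T. cruzi replicating inside host cells; inhibitors lower the luminescence signal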
[10] = activation of miR-122 Renilla sensor silencing – cell-based, Huh7 psiCHECK-miR122, Renilla luciferase, cherry-picked, dose response (AID 651956); format: functional;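 further: huh7 hepatoma cells stably carrying a psiCHECK-2 miR-122 sensor plasmid; renilla luciferase signal reporting endogenous miR-122 activity after 48 h compound exposure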
[11] = biological target: Paired box protein Pax-8 (Homo sapiens, UniProt Q06710); assay: PAX8 transcriptional activity inhibition in RMG-I – RMG-I cells, luciferase, cherry-pick, dose response (AID 687027); format: functional, cell-based;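 further: luciferase reporter driven by Pax8 target thyroperoxidase promoter measured by SteadyGlo luminescence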
Sequence of Paired box protein Pax-8 (Q06710 whole entry): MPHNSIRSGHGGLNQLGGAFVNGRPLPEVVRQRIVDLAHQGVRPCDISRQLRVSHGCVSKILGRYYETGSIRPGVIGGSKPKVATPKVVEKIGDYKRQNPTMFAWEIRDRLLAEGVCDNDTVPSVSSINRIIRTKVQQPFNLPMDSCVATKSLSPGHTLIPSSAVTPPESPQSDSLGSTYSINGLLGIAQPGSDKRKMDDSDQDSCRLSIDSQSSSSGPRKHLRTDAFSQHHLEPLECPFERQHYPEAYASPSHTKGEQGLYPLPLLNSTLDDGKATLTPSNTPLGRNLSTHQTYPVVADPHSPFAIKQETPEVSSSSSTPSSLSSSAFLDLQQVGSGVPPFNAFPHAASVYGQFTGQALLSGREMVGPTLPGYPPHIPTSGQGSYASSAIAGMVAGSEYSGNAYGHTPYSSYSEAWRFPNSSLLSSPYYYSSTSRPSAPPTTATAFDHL

[12] = biological target: T1, RNA-editing ligase 1, mitochondrial (Trypanosoma brucei brucei, UniProt P86926); assay: inhibition of trypanosome RNA editing ligase – biochemical, fluorescence, Trypanosoma brucei, dose response (AID 1117295); format: functional
T1 sequence (P86926 whole entry): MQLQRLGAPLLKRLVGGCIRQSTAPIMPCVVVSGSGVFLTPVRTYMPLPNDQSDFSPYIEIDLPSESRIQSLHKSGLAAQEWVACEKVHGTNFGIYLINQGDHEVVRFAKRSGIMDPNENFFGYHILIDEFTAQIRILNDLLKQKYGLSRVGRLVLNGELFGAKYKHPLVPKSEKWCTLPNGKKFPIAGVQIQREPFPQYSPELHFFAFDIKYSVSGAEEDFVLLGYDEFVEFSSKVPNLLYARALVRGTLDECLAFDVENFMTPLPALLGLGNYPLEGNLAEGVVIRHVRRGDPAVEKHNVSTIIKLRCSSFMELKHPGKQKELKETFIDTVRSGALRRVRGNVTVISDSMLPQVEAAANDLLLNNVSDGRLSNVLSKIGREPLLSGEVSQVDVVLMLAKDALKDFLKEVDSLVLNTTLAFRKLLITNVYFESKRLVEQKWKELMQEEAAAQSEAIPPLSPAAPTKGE

[13] = biological target: T2, Apoptotic protease-activating factor 1 (Homo sapiens, UniProt O14727); format: functional
T2 sequence (O14727 whole entry): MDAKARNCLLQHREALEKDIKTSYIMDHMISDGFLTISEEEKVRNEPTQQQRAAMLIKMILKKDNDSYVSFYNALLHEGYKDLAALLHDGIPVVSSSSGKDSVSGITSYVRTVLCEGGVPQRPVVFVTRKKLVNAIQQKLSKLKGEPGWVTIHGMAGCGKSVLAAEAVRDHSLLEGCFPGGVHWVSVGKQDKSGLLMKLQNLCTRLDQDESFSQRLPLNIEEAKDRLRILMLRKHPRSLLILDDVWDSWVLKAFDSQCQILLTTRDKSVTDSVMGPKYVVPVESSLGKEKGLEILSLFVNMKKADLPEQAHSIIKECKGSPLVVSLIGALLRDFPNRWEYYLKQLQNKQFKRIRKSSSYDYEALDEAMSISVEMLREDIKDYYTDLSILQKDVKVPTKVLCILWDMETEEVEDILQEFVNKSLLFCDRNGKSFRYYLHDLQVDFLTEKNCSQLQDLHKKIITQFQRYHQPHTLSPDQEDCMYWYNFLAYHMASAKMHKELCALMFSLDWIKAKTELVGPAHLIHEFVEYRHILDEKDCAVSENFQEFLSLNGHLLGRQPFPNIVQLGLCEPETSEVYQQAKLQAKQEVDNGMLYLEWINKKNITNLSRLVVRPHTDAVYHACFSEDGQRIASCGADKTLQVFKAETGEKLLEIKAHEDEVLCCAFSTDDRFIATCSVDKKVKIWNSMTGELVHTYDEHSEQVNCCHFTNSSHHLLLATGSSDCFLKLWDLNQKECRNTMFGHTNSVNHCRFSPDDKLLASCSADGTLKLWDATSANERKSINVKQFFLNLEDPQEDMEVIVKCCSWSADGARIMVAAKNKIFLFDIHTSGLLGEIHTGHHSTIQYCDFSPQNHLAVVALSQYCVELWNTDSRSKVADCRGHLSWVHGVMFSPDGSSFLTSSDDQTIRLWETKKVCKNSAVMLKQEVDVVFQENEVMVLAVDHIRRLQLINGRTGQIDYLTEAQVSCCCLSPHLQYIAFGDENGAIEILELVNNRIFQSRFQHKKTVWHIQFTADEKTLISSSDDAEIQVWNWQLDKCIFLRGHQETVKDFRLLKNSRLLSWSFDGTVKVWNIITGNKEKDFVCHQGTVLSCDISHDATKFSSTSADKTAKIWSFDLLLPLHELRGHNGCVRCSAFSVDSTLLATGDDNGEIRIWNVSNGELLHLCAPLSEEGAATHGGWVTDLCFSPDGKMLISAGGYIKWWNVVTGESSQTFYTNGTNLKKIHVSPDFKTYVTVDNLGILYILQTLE

**Q.** With `CN1C(=O)c2cc(NC(=O)Cc3ccccc3)ccc2OC[C@H]2O[C@@H](CC(=O)NC3CCC3)CC[C@@H]21` as the compound, how does the AC50 [1] read?
**A.** The AC50 was 9.59 µM (active).

**Q.** Which IC50 [2] does the source give for `CCc1noc(C)c1C(=O)OC(C)C(=O)Nc1ccc2c(c1)OCO2` (stereo not drawn) here?
**A.** The IC50 was > 69.6 µM (inactive).

**Q.** And the IC50 [3]?
**A.** Its IC50 is > 69.6 µM (inactive).

**Q.** Which IC50 [4] does the source give for `CCN(CC)CCOc1ccc(/C(=C(\Cl)c2ccccc2)c2ccccc2)cc1` [CLOMIPHENE] here?
**A.** Its IC50 is > 40 µM (inactive).

**Q.** With `COc1ccc(C2=C(NC(=O)c3ccccc3Cl)C(=O)c3ccccc3C2=O)cc1` as the compound, how does the AC50 [5] read?
**A.** The AC50 was 17.5 µM (active).

**Q.** What about the AC50 [6] of the same compound?
**A.** Its AC50 is 11.8 µM (active).

**Q.** Which results are given for `CCN(CC)CCNC1=C(Nc2ccccc2)C(=O)c2ccccc2C1=O`?
**A.** AC50 [5]: > 70 µM (inactive); AC50 [6]: > 70 µM (inactive)

**Q.** What does the source list for `CC(C)(CN=C(S)NCCc1ccccc1)CN=C(S)NCCc1ccccc1`?
**A.** CC50 [7]: 23.7 µM (active); EC50 [8]: > 60 µM (not active); EC50 [9]: 3.35 µM (active)

**Q.** Which results are given for `C[C@H](CO)N1C[C@H](C)[C@@H](CN(C)Cc2ccc(-c3ccccc3)cc2)Oc2ccc(NC(=O)Cc3ccccc3)cc2CC1=O`?
**A.** AC50 [10]: 21.3 µM (active); AC50 [1]: 28.7 µM (active); AC50 [11]: 9.36 µM (active)

**Q.** With `COC(=O)C1=C(C)N(Cc2cccc(C(F)(F)F)c2)C(NCc2ccc(OC)cc2)=NC1c1ccccc1C(F)(F)F` (stereo not drawn) as the compound, how does the IC50 [12] read?
**A.** The IC50 was > 96.6 µM (inactive).

**Q.** With `COCCN(Cc1ccccc1)C(=O)c1cccc(S(=O)(=O)N2CCN(c3ccccc3)CC2)c1` as the compound, how does the IC50 [13] read?
**A.** The IC50 was > 100 µM (inactive).

**Q.** What does the source list for `Cc1ccc(C(=O)NC2=C(c3ccccc3)C(=O)c3ccccc3C2=O)o1`?
**A.** AC50 [5]: 21.8 µM (active); AC50 [6]: 19.1 µM (active)
